The values that follow come from article PMC11859236, “A Sequential Ultrafiltration Method to Enhance the Accuracy and Throughput in Plasma Protein Binding Tests” (Pharmaceutics, 2025).

The subject of series [1] is plasma proteins. Briefly: Mass balance UF, plasma protein binding. The note with it: for Plasma protein binding (%): Mass balance UF, rat plasma, mean (±SD). The method, then:
Washing procedures were performed in accordance with established methods for conventional ultrafiltration. Further procedures were conducted as per the protocols outlined by Wang and Williams. […] Following centrifugation, the filter was carefully detached from the FT tube, and the filtrate was removed. The filter was then inverted and transferred to a new retentate collection tube (RT tube), where it underwent a second centrifugation at 1000× g for 2 min at 25 °C. The retentate was subsequently extracted from the RT tube (Figure 2A).
In this equation, CR and VR represent the concentration and volume of the retentate obtained from the final RT tube, while CF and VF denote the concentration and volume of the filtrate collected from the FT tube.

For series [2] the following is noted: cited from earlier work.
The test system of series [3] is plasma proteins. Briefly: Sequential UF, plasma protein binding. The note with it: for Plasma protein binding (%): Sequential UF, rat plasma, mean (±SD).
Method: (§2) Rat plasma was collected from male Sprague Dawley rats purchased from Orient Bio Inc. (Seongnam, Republic of Korea). The plasma was separated from whole blood samples using centrifugation and was utilized immediately for the PPB test.
(§3) All compounds, with the exception of otaplimastat and ciclopirox, were added to 1 mL of blank plasma to achieve a drug concentration of 10 μM. Otaplimastat and ciclopirox were examined at concentrations of 5 μM and 1 μg/mL, respectively. The compound-added plasma samples were incubated in a water bath at 37 °C and agitated at 50 rpm for two hours prior to the PPB test.
(§4) A volume of 0.5 mL of the plasma sample was initially loaded onto the filter within the FT tube. The tube was then subjected to centrifugation at 14,000× g for 2 min at a temperature of 25 °C, serving as the pre-ultrafiltration (pre-UF) step.
(§5) The bound and unbound plasma fractions were subjected to linear regression analysis, with the regression line established by constraining the y-intercept to zero [14].
A short description of series [4]: Log p (lipophilicity). The class given is physicochemical. The note with it: in-house unpublished data. The source says:
Table 2 Log p value of the test compounds. | column: Log p

In series [5] the test system is plasma proteins. Conditions: male, Sprague Dawley, rat, 2 h, 10 μM.
Method: as §2, §3, §4, §5
Series [6] concerns plasma proteins. Nature of the series: Conventional UF without NSB correction, plasma protein binding. Conditions: male, Sprague Dawley. The series is classed as in vitro ADME, rat. On the procedure:
(§1) The device used in the experiment was Amicon® Ultra, which is commonly used in UF experiments. UF was conducted following the manufacturer's user guide. Briefly, the centrifugal filter units were washed once with 0.1N NaOH and then twice with double-distilled water by centrifugation at 14,000× g for 15 min. […] The exact process was performed using phosphate-buffered saline (PBS) instead of plasma to obtain a filtrate solution for correction with PBS [13].

Series [7] has as its system plasma proteins. Nature of the series: Conventional UF with NSB correction using PBS, plasma protein binding. The class given is in vitro ADME. The note with it: male, Sprague Dawley, rat plasma, conventional UF with NSB correction by PBS, mean ± SD, read-out: percentage of PPB (converted). The method, then:
as §1, with “[13]. […] In this equation, CSB indicates the concentration of the buffer sample, while CFB signifies the concentration of the filtrate sample derived from ultrafiltration using the buffer.” for “[13].”

The test system of series [8] is plasma proteins. The arrangement: method as in PMID 11709325. Conditions: equilibrium dialysis; cited from earlier work. Background: In equilibrium dialysis only unbound substance equilibrates across the membrane.
Where [9] appears, read: male, Sprague Dawley, rat, plasma.

Counter-ions that a name gives are not always drawn. Like-named read-outs stand apart in the source and are kept apart here.

For the compound `Cc1cc(C2CCCCC2)n(O)c(=O)c1` [Ciclopirox], the fraction unbound at 2 h, 1 μg/mL in series [1] (setting [9]) was 0.0285; in series [3] (setting [9]), 0.0129. In series [2], the Log p is reported as 2.73.
For the compound `CCc1c2c(nc3ccc(OC(=O)N4CCC(N5CCCCC5)CC4)cc13)-c1cc3c(c(=O)n1C2)COC(=O)[C@]3(O)CC` [Irinotecan, irinotecan hydrochloride], the Log p in series [2] is 4.18.
With `CC(=O)N(CCCCNCCCn1c(=O)[nH]c2ccccc2c1=O)CCCn1c(=O)[nH]c2ccccc2c1=O` [Otaplimastat], the entries for the “Plasma protein binding (%)” value in series [1] (5 μM) and in series [3] (5 μM) were 50.63 (±11.71) % and 57.61 (±3.39) %, respectively. Further, the Log p in series [4] is given as 2.67.
As to `O=c1c(O)c(-c2ccc(O)c(O)c2)oc2cc(O)cc(O)c12` [Quercetin, quercetin], the “difference between CR and CF (retentate and filtrate concentration)” value in series [1] (male, Sprague Dawley, rat, 2 h, 10 μM) turned out to be 1000 fold. Also, the results for the fraction unbound at 2 h, 10 μM in series [1] (setting [9]) and in series [3] (setting [9]) were 0.0039 and 0.0008, respectively. The “absolute difference in PPB between sequential UF and mass balance UF” value in series [5] was determined as 0.31%. In addition, the Log p in series [2] was 1.82.
On to `COC(=O)c1ccccc1-c1c2ccc(=N)cc-2oc2cc(N)ccc12` [Rhodamine 123, rhodamine 123], for which the fraction unbound at 2 h, 10 μM in series [6] (rat plasma, conventional UF without NSB correction, mean ± SD, read-out: percentage of PPB (converted)) is 0.103; in series [7] it was 0.33; in series [1] (setting [9]), 0.3; in series [3] (setting [9]), 0.25. Also, the “excess of PPB by conventional UF without NSB correction over PPB with NSB correction using PBS” value in series [6] (rat, 2 h, 10 μM) came out at 22.6%. In addition, in series [8], the “protein binding, literature value” is given as 70%. In series [2], the Log p is 1.06.
On to `CCc1c2c(nc3ccc(O)cc13)-c1cc3c(c(=O)n1C2)COC(=O)[C@]3(O)CC` [SN-38], for which the “Plasma protein binding (%)” value in series [1] (10 μM) is 95.69 (±1.58) %; in series [3] (10 μM), 95.47 (±0.88) %. Further, in series [2], the Log p was 2.31.
